# From patent US8709420B2 (GlaxoSmithKline Intellectual Property Limited, priority 2010, dated 2014)
# Read-outs that look alike come from different tables or passages of the source.
# Legend:
# [1] = system: NB12 xenograft; experiment: NB12 TIC xenograft model; type: in vivo, NOD/SCID mice; conditions: for tumor growth compared to control: daily oral gavage, TP 1.0 mg/Kg, PZ 150 mg/Kg, TP+PZ both
# Method: (§1) 1×10^6 SK-N-BE(2) cells or 30,000 NB12 cells were implanted subcutaneously into the inguinal fat pad of each of non-obese diabetic/severe combined immune deficient (NOD/SCID) mice. […] The criteria for end point were tumor sizes exceeding 2.0 cms in diameter or animals showing signs of morbidity. The tumor sizes were measured on a daily basis until the end point or sacrifice. The long (D) and short diameters (d) were measured with calipers. Tumor volume (cm^3) was calculated as V=0.5×D×d^2. When end point was reached, the animals were sacrificed by cervical dislocation. Tumors were excised and were fixed in 10% formalin solution.
# [2] = system: SH-SY5Y neuroblastoma cell line; experiment: In-vitro cytotoxicity, Alamar Blue cell viability; type: cell-based; conditions: 72 h
# Description: (§2) SK-N-BE(2) (MYCN amplified) and SH-SY5Y (non-MYCN amplified neuroblastoma cell lines) were obtained from American Type Culture Collection (ATCC) (Manassas, Va.); BE(2)-c sub-clone of SK-N-BE(2) was obtained from Dr. Michelle Haber (Children's Cancer Institute for Medical Research, Lowry Cancer Research Centre, Randwick, Australia); Human Umbilical Vein Endothelial Cells (HUVECs) were obtained from Dr. Herman Yeger (The Hospital for Sick Children, Toronto, Ontario, Canada) and Tumor Initiating (TIC) cell lines NB12 and NB88, were obtained from Dr. David Kaplan (The Hospital for Sick Children, Toronto, Ontario, Canada). TICs NB12 and NB88 were isolated from the bone marrow metastases of relapsed high-risk neuroblastoma patients. Neuroblastoma cell lines SK-N-BE(2) and SH-SY5Y were grown in alpha-MEM containing 10% fetal bovine serum and 1% antibiotic mixture in humidified atmosphere at 37° C. with 5% CO2. NB12 and NB 88 were cultured as described previously.
# (§3) Cell viability was determined by Alamar Blue assay. Alamar blue (10% of total volume was added to each well three hours prior to fluorometric detection). Fluorometric detection was performed using the SPECTRAmax gemini Spectrophotometer at excitation wavelength of 540 nm and emission wavelength of 590 nm.
# [3] = system: SK-N-BE(2) neuroblastoma cell line; experiment: In-vitro cytotoxicity, Alamar Blue cell viability; type: cell-based; conditions: for IC50: Homo sapiens, SKNBE2, 72 h
# Description: as §2, §3
# [4] = Pharmacokinetics of topotecan and pazopanib in non-tumor bearing animals; type: in vivo, mice
# Method: Non-tumor bearing animals were randomized into four groups (n=3): Control, PZ, TP and TP+PZ. The doses of the drugs were the same as for the inguinal xenograft and metastatic models described above.
# After single drug administration, the saphenous vein blood samples (30 μl) were collected in heparinized microcentrifuge tubes at 30 min, 1 h, 2 h, 4 h, 8 h, 12 h, 18 h and 24 h as per the Lab Animal Services protocol. Plasma was immediately isolated after blood collection by centrifugation. For the topotecan assay, 10 μl plasma was immediately precipitated with 20 μl methanol and centrifuged. The supernatant and rest of the plasma were stored at […] until analysis.
# 30 μl of supernatant was injected into the HPLC system, which consisted of Phenomenox C18 (Luna; 150×4.6 mm; particle size 5 microns) column, UV detector (267 nm). The mobile phase was 50:50 mixture of 10 mM potassium phosphate and methanol, with flow rate 1.0 ml/min. The calibration standards were 5, 10, 50, 100 and 200 μg/ml.
# Assay of topotecan: Prior to analysis, the previously prepared 20 μl methanolic extract was mixed with 50 μl of internal standard solution (5 ng/ml d6 topotecan dissolved 1% formic acid in acetonitrile). The mixture was then centrifuged and the supernatant was transferred to auto-sampler vials.
# The LC/MS system consisted of an HPLC (Agilent Infinity 1290), Column (Kinetex HILIC, 2.6u, 100A, 50×4.6 mm) and a mass spectrometer (Sciex 5500-QTrap). The analytes were eluted by gradient flow. Mobile phase A was water:actonitrile (10:90) and mobile phase B was 10 mM ammonium acetate (pH 3.2). The mobile phase ratio was 5% A for 0-2 min, 20% A for 4-6 min and 5% A for 8-10 min at a flow rate 0.5 ml/min. The samples were analyzed by positive ion electrospray ionization technique in multiple reaction monitoring modes. The following mass transitions were monitored: 422.2 to 377 m/z, (topotecan M+H) and 428.2 to 377 m/z (topotecan d6 M+H). The calibration standard range was 0.5 ng/ml to 10 ng/ml.
# [5] = system: SK-N-BE(2) xenograft; experiment: SK-N-BE(2) neuroblastoma xenograft model; type: in vivo, NOD/SCID mice; conditions: for survival compared to control: daily oral gavage 56 days, TP 1.0 mg/Kg topotecan, PZ 150 mg/Kg pazopanib, TP+PZ both
# Method: as §1
# In the group of animals implanted with SK-N-BE(2) cells palpable tumors started appearing approximately two weeks after cell implantation and took an additional week to reach 0.5 cm in diameter, after which the treatment was started. The effect of treatment was assessed by measuring regression of tumors and by survival times. Drugs were administered daily over a period of 56 days, and the animals belonging to the TP+PZ group were also retreated from the 103rd day to evaluate the impact of resuming treatment on reversing drug resistance. Retreatment was continued until the 125th day, after which the mice were sacrificed.
# [6] = system: RD rhabdomyosarcoma cell line; type: cell-based
# Method: (§4) Materials: The cells were cultured at 37° C. in 5% CO2 in a-MEM (Multicell; Wisent, Inc., St. Bruno, Quebec, Canada) with 10% fetal bovine serum (FBS; Life Technologies, Grand Island, N.Y.) and 1% antibiotic mixture, containing 10000 IU penicillin and 10000 μg/ml streptomycin (Multicell; Wisent, Inc., St. Bruno, Quebec, Canada). Trypsin-EDTA, containing 0.05% trypsin and 0.53 mM EDTA was also purchased from Multicell; Wisent, Inc., St. Bruno, Quebec, Canada.
# (§5) Procedure: A total of 20,000 cells were plated in each well of 48 well-plates and incubated at 37° C. in 5% CO2. After 48 h, the cells were treated with various concentrations of drugs. After 72 h of treatment, the cell viability was determined by alamar blue assay.
# [7] = system: Rh30 rhabdomyosarcoma cell line; type: cell-based
# Method: as §4, §5
# [8] = system: KHOS osteosarcoma cell line; type: cell-based
# Method: as §4, §5
# [9] = system: Rh30 xenograft; experiment: RH30 rhabdomyosarcoma mouse xenograft model; conditions: for tumor growth rate: daily oral up to 56 days, pazopanib 150 mg/Kg, LDM topotecan 1.0 mg/kg, combination both
structure (smiles),measurement,setting,value
"Cc1ccc(Nc2nccc(N(C)c3ccc4c(C)n(C)nc4c3)n2)cc1S(N)(=O)=O [pazopanib, 5-[[4-[(2,3-dimethyl-2H-indazol-6-yl)methylamino]-2-pyrimidinyl]amino]-2-methylbenzenesulfonamide]",tumor growth compared to control,[1],No significant difference
same,viability of SH-SY5Y,[2]; up to 5000 ng/ml,did not affect the viabilities
same,viability of SK-N-BE(2),"[3]; up to 5000 ng/ml, 72 h",did not affect the viabilities
same,time optimal plasma concentration of pazopanib was maintained,[4]; PZ group,at least 18 h
same,time to peak plasma concentration of pazopanib,"[4]; PZ group, single oral 150 mg/Kg pazopanib",2 h
same,time optimal plasma concentration of pazopanib was maintained,[4]; TP+PZ group,at least 18 h
same,time to peak plasma concentration of pazopanib,"[4]; TP+PZ group, single oral 150 mg/Kg pazopanib+1.0 mg/Kg topotecan",2 h
same,survival compared to control,[5],significantly enhanced survival
same,cell viability / cytotoxicity,[6],did not show cytotoxicity
same,cell viability / cytotoxicity,[7],did not show cytotoxicity
same,cell viability / cytotoxicity,[8],did not show cytotoxicity
same,tumor growth rate,[9],delayed the tumor growth rate
CC[C@@]1(O)C(=O)OCc2c1cc1n(c2=O)Cc2cc3c(CN(C)C)c(O)ccc3nc2-1 [topotecan],survival compared to control and PZ groups,"[1]; daily oral gavage until day 83, P<0.005",significantly enhanced
same,tumor growth compared to control,[1],significantly reduced
same,IC50,"[2]; Homo sapiens, SH-SY5Y, topotecan alone",0.0053 µg/mL
same,IC50,[3]; topotecan alone,0.065 µg/mL
same,IC50,"[3]; topotecan with addition of 5000 ng/ml pazopanib, P=0.046",0.0351 µg/mL
same,trough concentration of topotecan,[4]; TP group,0.77 ng/mL
same,peak plasma concentration of topotecan,"[4]; TP group, single oral 1.0 mg/Kg topotecan",19.75 ng/mL
same,peak plasma concentration of topotecan,[4]; TP+PZ group,33.05 ng/mL
same,trough concentration of topotecan,[4]; TP+PZ group,2.79 ng/mL
same,"tumor growth rate, TP versus PZ group","[5]; TP 1.0 mg/Kg vs PZ 150 mg/Kg, daily oral",No significant difference
same,survival compared to control,[5],significantly enhanced survival
same,cell viability / cytotoxicity,[6]; 72 h treatment,dose-dependent reduction
same,cell viability / cytotoxicity,[7]; 72 h treatment,dose-dependent reduction
same,cell viability / cytotoxicity,[8]; 72 h treatment,dose-dependent reduction
same,"efficacy relative to PZ, TP+PZ and intermittent dosing",[9]; LDM topotecan 1.0 mg/kg daily oral,less effective
same,tumor growth rate,[9],delayed the tumor growth rate
